MIC, IC50 and Activity data for 31 compounds are collected here from ChEMBL document CHEMBL5370592, “Synthesis and Structure-Activity Relationships of a New Class of Oxadiazoles Targeting DprE1 as Antitubercular Agents” (ACS Med Chem Lett, 2023).

Series [1] deals with Mycobacterium tuberculosis. Briefly: Antitubercular activity against Mycobacterium tuberculosis H37Rv ATCC 27294 assessed as inhibition of bacterial growth cultured in Middlebrook 7H9/BSA/Tyloxapol with glucose medium for 2 weeks. The note with it: H37Rv ATCC 27294, 336 h. It is filed as functional.
Series [2] deals with Mycobacterium tuberculosis. Briefly: Antitubercular activity against Mycobacterium tuberculosis H37Rv ATCC 27294 assessed as inhibition of bacterial growth cultured in Middlebrook 7H9/glucose/casitone/tyloxapol medium for 2 weeks. The series is classed as functional. The conditions noted are these: H37Rv ATCC 27294, 336 h.
The nature of series [3]: Cytotoxicity against human HepG2 cells assessed as reduction in cell viability incubated for 24 hrs in DMEM/10% FBS supplemented with glucose by CellTiter-Glo luminescent assay. It is filed as toxicity, cell-based.
Series [4] is described as follows: Cytotoxicity against human HepG2 cells assessed as reduction in cell viability incubated for 24 hrs in DMEM/10% FBS supplemented with galactose by CellTiter-Glo luminescent assay. It is filed as toxicity, cell-based.
Series [5] relates to Mycobacterium tuberculosis. Briefly: Antitubercular activity against Mycobacterium tuberculosis H37Rv ATCC 27294 assessed as inhibition of bacterial growth cultured in Middlebrook 7H9/ADC/Tween 80 with cydC::aph medium for 2 weeks. It is filed as functional. The conditions noted are these: H37Rv ATCC 27294, 336 h.
Series [6] deals with Mycobacterium tuberculosis. Briefly: Antitubercular activity against Mycobacterium tuberculosis H37RV ATCC 27294 assessed as inhibition of bacterial growth cultured in Middlebrook 7H9/cholesterol/BSA/Tyloxapol medium for 2 weeks. The note with it: H37Rv ATCC 27294, 336 h. The series is classed as functional.
The subject of series [7] is Mycobacterium tuberculosis. Briefly: Antitubercular activity against Mycobacterium tuberculosis H37Rv ATCC 27294 assessed as inhibition of bacterial growth cultured in Middlebrook 7H9/DPPC/cholesterol/BSA/Tyloxapol medium for 2 weeks. It is filed as functional. The note with it: H37Rv ATCC 27294, 336 h.
Series [8] has as its system Mycobacterium tuberculosis. Briefly: Antitubercular activity against Mycobacterium tuberculosis H37Rv ATCC 27294 assessed as inhibition of bacterial growth cultured in Middlebrook 7H9/ADC/Tween 80 medium for 2 weeks. The note with it: H37Rv ATCC 27294, 336 h. The series is classed as functional.
Series [9] has as its system Mycobacterium tuberculosis. The series can be described thus: Induction of DNA damage in Mycobacterium tuberculosis H37Rv transfected with PrecA-LUX reporter assessed as induction of recA reporter gene expression incubated for 12 days by bioluminescence analysis. The series is classed as functional, organism-based. The conditions noted are these: time 12.0 day.
Series [10] relates to Mycobacterium tuberculosis. Briefly: Induction of DNA damage in Mycobacterium tuberculosis H37Rv transfected with PradA-LUX reporter assessed as induction of radA reporter gene expression incubated for 12 days by bioluminescence analysis. It is filed as functional, organism-based. The conditions noted are these: time 12.0 day.

In brackets after ≈: the same amount, converted by molar mass. Activity calls are given as the source filed them. The rule behind the calls is not given here.

For the compound `O=C(C1CCN(c2nnc(-c3ccccc3)o2)CC1)N1CCC(=Cc2ccccc2)CC1`, the figures for the MIC in [1] and in series [2] were 2.3 µM (≈ 0.986 µg/mL) and 0.3 µM (≈ 0.129 µg/mL), respectively. The IC50 at 24 h in series [3] was more than 50 µM; in series [4], 37.5 µM.

Turning to `CN1CCN(C(=O)C2CCN(c3nnc(-c4ccccc4)o3)CC2)CC1`, the MIC in series [1] and in [2] was more than 50 µM each time. Besides, the IC50 at 24 h in series [3] and in series [4] was more than 50 µM each time.

Regarding `CC(C)(C)C1CCN(C(=O)C2CCN(c3nnc(-c4ccccc4)o3)CC2)CC1`, the MIC in [1] amounted to 4.7 µM (≈ 1.86 µg/mL); in [2], 1.2 µM (≈ 0.476 µg/mL). Besides, the IC50 at 24 h in series [3] and in series [4] was more than 50 µM in each case.

As for `Cc1nnc(N2CCC(C(=O)N3CCC(Cc4ccccc4)CC3)CC2)o1`, the MIC in series [1] and in series [2] was more than 50 µM each time. For the same compound, the IC50 at 24 h in series [3] and in series [4] was more than 50 µM each time.

With `CC(C)C1CCN(C(=O)C2CCN(c3nnc(-c4ccccc4)o3)CC2)CC1`, the MIC is 4.7 µM (≈ 1.8 µg/mL) in series [1] and 2.3 µM (≈ 0.88 µg/mL) in [2]. For the same compound, the IC50 at 24 h in series [3] and in series [4] was more than 50 µM throughout.

With `NNC(=O)c1ccncc1` [ISONIAZID], the MIC in series [5] was 0.39 µM (≈ 0.0535 µg/mL); in series [6] it was 0.39 µM (≈ 0.0535 µg/mL); in series [7] it was 0.2 µM (≈ 0.0274 µg/mL); in [1], 0.16 µM (≈ 0.0219 µg/mL); in series [8], 0.2 µM (≈ 0.0274 µg/mL); in series [2], 0.1 µM (≈ 0.0137 µg/mL). In addition, the outcome in [9] and in series [10] was inactive.

As for `O=C(C1CCN(c2nnc(-c3ccncc3)o2)CC1)N1CCC(Cc2ccccc2)CC1`, the MIC in series [1] turned out to be 1.2 µM (≈ 0.518 µg/mL); in series [2], 0.39 µM (≈ 0.168 µg/mL). Moreover, the IC50 at 24 h in series [3] is more than 50 µM; in [4], 37.5 µM.

Turning to `O=C(NCc1ccccc1)C1CCN(c2nnc(-c3ccccc3)o2)CC1`, the minimum inhibitory concentration (MIC) in [1] was more than 50 µM; in series [2], 25 µM (≈ 9.06 µg/mL). Also, the IC50 at 24 h in series [3] and in [4] was more than 50 µM throughout.

`O=C(C1CCN(c2nnc(-c3ccccc3)o2)CC1)N1CCN(Cc2ccccc2)CC1`: the MIC in series [1] worked out at 50 µM (≈ 21.6 µg/mL); in series [2], 25 µM (≈ 10.8 µg/mL). Also, the half-inhibitory concentration (IC50) at 24 h in series [3] and in series [4] was more than 50 µM throughout.

For `O=C(C1CCN(c2nnc(-c3ccc(C(F)(F)F)cc3)o2)CC1)N1CCC(Cc2ccccc2)CC1`, the minimal inhibitory concentration (MIC) in series [1] and in series [2] was more than 50 µM throughout. In addition, the concentration for half-maximal inhibition (IC50) at 24 h in series [3] and in series [4] was more than 50 µM in each case.

Take `O=C(C1CCN(c2nnc(-c3ccccc3)o2)CC1)N1CCC(Cc2ccc(C(F)(F)F)cc2)CC1`: the minimal inhibitory concentration (MIC) in series [1] is 0.3 µM (≈ 0.15 µg/mL); in [2], 0.1 µM (≈ 0.0499 µg/mL). Further, the IC50 at 24 h in [3] was more than 50 µM; in [4] it was 37.5 µM.

Turning to `O=C(C1CCN(c2nnc(-c3ccccc3)o2)CC1)N1CCCC(Cc2ccccc2)C1` (stereo unspecified), the MIC in series [1] is 50 µM (≈ 21.5 µg/mL); in series [2], 25 µM (≈ 10.8 µg/mL). Also, the IC50 at 24 h in series [3] is more than 50 µM; in series [4], 37.5 µM.

Turning to `O=C(C1CCN(c2nnc(-c3ccccc3)o2)CC1)N1CCC(Oc2ccccc2)CC1`, the MIC turned out to be 4.7 µM (≈ 2.03 µg/mL) in series [1] and 2.3 µM (≈ 0.995 µg/mL) in series [2]. Also, the IC50 at 24 h in series [3] and in series [4] was 37.5 µM each time.

Turning to `O=C(NC1CCC(Cc2ccccc2)CC1)C1CCN(c2nnc(-c3ccccc3)o2)CC1` (stereo unspecified), the figures for the minimum inhibitory concentration (MIC) in series [1] and in series [2] were more than 50 µM and 4.7 µM (≈ 2.09 µg/mL), respectively. The IC50 at 24 h in series [3] and in series [4] was more than 50 µM each time.

On to `O=C(C1CCN(c2nnc(-c3ccccc3)o2)CC1)N1CCC(CC2CCCCC2)CC1`, for which the MIC worked out at 0.2 µM (≈ 0.0873 µg/mL) in [1] and 0.05 µM (≈ 0.0218 µg/mL) in [2]. Besides, the IC50 at 24 h in series [3] and in series [4] was more than 50 µM throughout.

Take `O=C(C1CCN(c2nnc(-c3ccccc3)o2)C1)N1CCC(Cc2ccccc2)CC1` (stereo unspecified): the MIC stood at 50 µM (≈ 20.8 µg/mL) in series [1] and 6.3 µM (≈ 2.62 µg/mL) in series [2]. Besides, the IC50 at 24 h in series [3] and in series [4] was more than 50 µM each time.

In the case of `O=C(c1ccccc1)C1CCN(C(=O)C2CCN(c3nnc(-c4ccccc4)o3)CC2)CC1`, the figures for the MIC in [1] and in [2] were 9.4 µM (≈ 4.18 µg/mL) and 4.7 µM (≈ 2.09 µg/mL), respectively. The concentration for half-maximal inhibition (IC50) at 24 h is more than 50 µM in series [3] and 37.5 µM in [4].

Take `O=C(C1CCN(c2nnc(-c3ccccc3)o2)CC1)N1CCC(Cc2ccccc2)C1` (stereo unspecified): the MIC in series [1] was found to be 9.4 µM (≈ 3.92 µg/mL); in series [2] it was 6.25 µM (≈ 2.6 µg/mL). For the same compound, the values for the IC50 at 24 h in [3] and in series [4] were more than 50 µM and 37.5 µM, respectively.

As to `O=C(C1CCN(c2nnc(-c3ccccc3)o2)CC1)N1CCc2ccccc2C1`, the MIC in series [1] amounted to 50 µM (≈ 19.4 µg/mL); in series [2], 37 µM (≈ 14.4 µg/mL). In addition, the IC50 at 24 h in series [3] and in series [4] was more than 50 µM each time.

As to `O=C(C1CCN(c2nnc(-c3ccccc3)o2)CC1)N1CCC(C(F)(F)F)CC1`, the results for the MIC in [1] and in series [2] were 1.56 µM (≈ 0.637 µg/mL) and 0.2 µM (≈ 0.0817 µg/mL), respectively. For the same compound, the concentration for half-maximal inhibition (IC50) at 24 h in series [3] and in series [4] was more than 50 µM in each case.

`CC(c1ccccc1)C1CCN(C(=O)C2CCN(c3nnc(-c4ccccc4)o3)CC2)CC1` (stereo unspecified): the MIC in series [1] is 1.56 µM (≈ 0.694 µg/mL); in series [2], 0.2 µM (≈ 0.0889 µg/mL). Further, the IC50 at 24 h in series [3] and in series [4] was more than 50 µM each time.

As to `O=C(C1CCN(c2nnc(-c3ccccc3)o2)CC1)N1CCC(c2ccccc2)CC1`, the minimal inhibitory concentration (MIC) amounted to 4.7 µM (≈ 1.96 µg/mL) in series [1] and 2.3 µM (≈ 0.958 µg/mL) in series [2]. Besides, the IC50 at 24 h in series [3] is more than 50 µM; in series [4], 37.5 µM.

Consider `O=C(C1CCN(c2nnc(-c3ccc(F)cc3)o2)CC1)N1CCC(Cc2ccccc2)CC1`, for which the minimum inhibitory concentration (MIC) in series [1] was 1.2 µM (≈ 0.538 µg/mL); in series [2], 0.15 µM (≈ 0.0673 µg/mL). Moreover, the IC50 at 24 h in series [3] and in series [4] was more than 50 µM in each case.

In the case of `O=C(C1CCN(c2nnc(-c3ccccc3)o2)CC1)N1CCCCC1`, the MIC in series [1] and in series [2] was more than 50 µM in each case. Also, the IC50 at 24 h in series [3] and in series [4] was more than 50 µM each time.

Regarding `O=C(CC1CCN(c2nnc(-c3ccccc3)o2)CC1)N1CCC(Cc2ccccc2)CC1`, the MIC in series [1] is 12.5 µM (≈ 5.56 µg/mL); in [2] it was 4.7 µM (≈ 2.09 µg/mL). For the same compound, the IC50 at 24 h in series [3] is more than 50 µM; in [4], 37.5 µM.

`O=C(C1CCN(c2nnc(-c3ccccc3)s2)CC1)N1CCC(Cc2ccccc2)CC1`: the MIC was found to be 1.2 µM (≈ 0.536 µg/mL) in series [1] and 0.3 µM (≈ 0.134 µg/mL) in series [2]. Further, the IC50 at 24 h is more than 50 µM in [3] and 37.5 µM in series [4].

As for `CCN(CC)C(=O)C1CCN(c2nnc(-c3ccccc3)o2)CC1`, the MIC in series [1] and in series [2] was more than 50 µM throughout. The IC50 at 24 h in [3] and in series [4] was more than 50 µM throughout.

`CCCCCC[C@H]1C(=O)O[C@H](C)[C@H](NC(=O)c2cccc(NC=O)c2O)C(=O)O[C@@H](C)[C@@H]1OC(=O)CC(C)C` [ANTIMYCIN A]: the figures for the IC50 at 24 h in series [3] and in series [4] were more than 250 µM and 0.12 µM, respectively.

As for `O=C(C1CCN(c2noc(-c3ccccc3)n2)CC1)N1CCC(Cc2ccccc2)CC1`, the figures for the MIC in series [1] and in series [2] were 1.2 µM (≈ 0.517 µg/mL) and 0.3 µM (≈ 0.129 µg/mL), respectively. Also, the IC50 at 24 h in [3] was more than 50 µM; in series [4], 37.5 µM.

On to `O=C(C1CCCN(c2nnc(-c3ccccc3)o2)C1)N1CCC(Cc2ccccc2)CC1` (stereo unspecified), for which the figures for the MIC in series [1] and in series [2] were 50 µM (≈ 21.5 µg/mL) and 25 µM (≈ 10.8 µg/mL), respectively. Besides, the IC50 at 24 h was more than 50 µM in series [3] and 37.5 µM in [4].

`O=S(=O)(C1CCN(c2nnc(-c3ccccc3)o2)CC1)N1CCC(Cc2ccccc2)CC1`: the MIC was more than 50 µM in [1] and 12.5 µM (≈ 5.83 µg/mL) in [2]. The half-maximal inhibitory concentration (IC50) at 24 h was more than 50 µM in series [3] and 37.5 µM in series [4].
